Values joined by “and” are separate entries in the source; they are usually repeats but may differ in a detail not shown here. Equal values may be shown once.
Experiments:
[1] = system: patients with PD and constipation; test: Phase 2 trial, all dosed patients (Stage 1 and 2): adverse events; assay type: in vivo, human
Description: Fifty patients were enrolled and 44 were dosed. In Stage 1, 10 patients were dosed, 1 (10%) withdrew prior to completion and 9 (90%) completed dosing. In stage 2, 6 (15%) patients had ≥3 CSBM/week at the end of the run-in period and were excluded, 34 patients were dosed and bowel response was assessable in 31 (91%). Two patients (5.8%) were terminated prior to completion because of recurrent dizziness, and 3 others withdrew during dosing (8.8%): 2 because of diarrhea and 1 because of holiday. Fifteen patients were randomized.
Most AEs were confined to the GI tract (88% in Stage 1 and 63% in Stage 2). The most common AE was nausea which occurred in 4/10 (40%) patients in Stage 1 and in 18/34 (52.9%) in Stage 2 (Table 2). Diarrhea occurred in 4/10 (40%) patients in Stage 1 and 15/34 (44%) in Stage 2. One patient withdrew because of recurrent diarrhea. Other GI related AEs included abdominal pain 11/44 […], flatulence 3/44 (6.8%), vomiting 3/44 (6.8%), worsening of acid reflux 2/44 (4.5%), and worsening of hemorrhoids 1/44 (2.2%). […] The only other noteworthy AE was dizziness 8/44 (18%). Dizziness was graded as moderate in one patient who was receiving an alpha-adrenergic blocking agent (Terazosin). This patient was withdrawn from the study and recovered spontaneously.

Solubility in water = assay type: physicochemical
[2] = Preclinical oral dosing in dogs; assay type: in vivo
[3] = system: patients with PD and constipation; test: Phase 2 trial Stage 2: CNS symptoms (UPDRS, MMSE, PDHQ, BDI-II, sleep diary); assay type: in vivo, human; conditions: for patients in whom hallucinations and delusions improved or disappeared during treatment: 6 patients with hallucinations (5) or delusions (1) at baseline; for UPDRS Part 1 (NMS): baseline 11.6 (6.51); for UPDRS Total: baseline 64.4 (23.72); for BDI-II: baseline 10.9 (7.12); for MMSE: baseline 28.4 (1.75)
From the text: Exploratory end-points, in addition to constipation, included for example, (i) depression assessed using the Beck Depression Inventory (BDI-II) (Steer et al. 2000) and Unified Parkinson's Disease Rating Scale (UPDRS); (ii) cognition assessed using the Mini Mental State Examination (MMSE) (Palsteia et al. 2018), Unified Parkinson's Disease Rating Scale (UPDRS), and Trail Making Test (TMT); (iii) sleep and REM-behavior disorder (RBD) using a daily sleep diary, I-Button Temperature Assessment, a REM sleep behavior disorder (RBD) questionnaire (RBDQ) (Stiasny-Kolster et al. 2007), and the UPDRS; (iv) hallucinations assessed using the PD hallucinations questionnaire (PDHQ) (Papapetropoulos et al. 2008), the UPDRS, and direct questioning; (v) fatigue using the Parkinson's Disease Fatigue Scale (PFS-16) and the UPDRS; (vi) motor functions using the UPDRS; and (vii) non-motor functions using the UPDRS.
Assessments were made at baseline and at the end of the fixed dose and washout periods. Circadian system status was evaluated by continuously monitoring wrist skin temperature (Thermochron iButton DS1921H; Maxim, Dallas) following published procedures (Sarabia et al. 2008).
An exploratory analysis was done with respect to the sleep data, the body temperature data, mood, fatigue, hallucinations, cognition and other motor and non-motor symptoms of PD. Continuous measurements within a subject were compared with a paired t-test and continuous measurements between subject groups were compared with a two-group t-test. Categorical data were compared with a chi-squared test or a Fisher's exact test if the expected cell counts are too small for a chi-squared test.
CNS symptoms were evaluated at baseline and at the end of the fixed dose period and the wash-out period (Table 12). Total UPDRS score was 64.4 at baseline, 60.6 at the end of the fixed dose period and 55.7 at the end of the wash-out period (p=0.002); similarly, the motor component of the UPDRS improved from 35.3 at baseline to 33.3 at the end of fixed dose to 30.2 at the end of wash-out (p=0.006). MMSE improved from 28.4 at baseline to 28.7 during treatment and to 29.3 during wash-out (p=0.0006). […] PDHQ improved from 1.3 at baseline to 1.8 during treatment and 0.9 during wash-out (p=0.03). Hallucinations were reported by 5 patients at baseline and delusions in 1 patient. […] The frequency of arm or leg thrashing reported in the sleep diary diminished progressively from 2.2 episodes/week at baseline to 0 at maximal dose. […] Unlike stool-related indices, the improvement in many CNS symptoms persisted during wash-out.

[4] = Preclinical oral dosing in rats; assay type: in vivo
[5] = Stage 2, end of fixed dose, mean (SD), n = 34
[6] = Stage 2, end of wash-out, mean (SD)
[7] = Stage 2, fixed dose, mean (SD), n = 34

CC(C)[C@@H](CC[C@@H](C)[C@H]1CC[C@H]2[C@@H]3[C@H](O)C[C@H]4C[C@@H](NCCCNCCCCN)CC[C@]4(C)[C@H]3CC[C@]12C)OS(=O)(=O)O (single isomer, unassigned) [squalamine (ENT-01), squalamine]
patients with worsening of hemorrhoids ([1]; 1/44 dosed patients): 2.2%
patients with worsening of acid reflux ([1]; 2/44 dosed patients): 4.5%
patients with flatulence ([1]; 3/44 dosed patients): 6.8%
patients with vomiting ([1]; 3/44 dosed patients): 6.8%
patients with dizziness ([1]; 8/44 dosed patients): 18%
solubility in water (Solubility in water; neutral pH): weakly soluble
dissolution in water (Solubility in water; pH<3.5 (the pH of gastric fluid)): readily dissolves
bioavailability [2]: limited bioavailability
tolerability [2]: well tolerated
oral bioavailability ([2]; preclinical studies): about 0.1%
patients in whom hallucinations and delusions improved or disappeared during treatment [3]: 5 of 6
patients in whom hallucinations and delusions improved or disappeared during treatment ([3]; listed as ENT-01): five
patients in whom hallucinations and delusions improved or disappeared during treatment ([3]; listed as aminosterol): five and 5 of 6
increase of total sleep time ([3]; 7.1 hours at baseline to 8.4 hours at 250 mg): 18%
UPDRS Part 1 (NMS) [3, 5]: 10.6 (6.18))
UPDRS Total [3, 5]: 60.6
UPDRS Total ([3]; Stage 2, end of fixed dose, mean (SD), n = 34, listed as Squalamine (ENT-01)): 60.6 (25.60)
UPDRS Part 1 (NMS) [3, 6]: 9.5 (5.27)
UPDRS Total [3, 6]: 55.7
UPDRS Total ([3]; Stage 2, end of wash-out, mean (SD), listed as Squalamine (ENT-01)): 55.7 (23.69)
BDI-II [3, 7]: 9.9 (6.45)
MMSE [3, 7]: 28.7 (1.9)
PDHQ ([3]; Stage 2, wash-out, mean (SD), baseline 1.3 (2.99)): 0.9 (2.33)
BDI-II ([3]; Stage 2, wash-out, mean (SD)): 8.7 (5.19)
MMSE ([3]; Stage 2, wash-out, mean (SD)): 29.3 (1.06)
frequency of arm or leg thrashing reported in the sleep diary ([3]; at maximal dose, baseline 2.2): 0 episodes/week
improvement of frequency of arm or leg thrashing ([3]; baseline 2.2 episodes/week to 0 at maximal dose): 100%
improvement in depression scoring (BDI-II) ([3]; baseline 10.9 to wash-out 8.7): 20%
improvement of UPDRS Part 1 ([3]; baseline 11.6 to wash-out 9.5, listed as aminosterol): ~20% and 18%
improvement of total UPDRS score ([3]; baseline 64.4 to end of wash-out 55.7): 13.5%
total sleep time versus baseline ([3]; beyond 125 mg): consistently higher than baseline
time patient remained free of hallucinations following cessation of dosing ([3]; one patient): 1 month
dose at which hallucinations disappeared ([3]; one patient, colonic prokinetic dose of 175 mg not reached): 100 mg
absorption from the intestine ([4]; rat, portal blood concentrations following oral dosing of radioactive ENT-01): low
bioavailability ([4]; rats): limited bioavailability
tolerability ([4]; rats): well tolerated

Reference: US20200038412A1, “METHODS OF TREATING ALZHEIMER'S DISEASE USING AMINOSTEROL COMPOSITIONS” (Enterin, Inc., priority 2018, published 2020)
